Values of other authors as cited in patent US20120016021A1, “METHODS OF TREATING FRAGILE X SYNDROME, DOWN'S SYNDROME, AUTISM AND RELATED DISORDERS” (XENOPORT, INC., priority 2010, published 2012).

Columns and labels:
Fmr1 KO mice = conditions: low doses (1 mg/kg), audiogenically induced seizures
[1] = animal models
[2] = administered orally

| absorption following administration into the colon [1] | elimination half-life [2] [h] | Structure (SMILES) | locomotor activity (Fmr1^/− animals; baclofen at 3 mg/kg, Fmr1^/− animals) | dose needed for comparable locomotor suppression in animals reared by Fmr1^+/+ mothers versus Fmr1^/− animals (Fmr1^/− animals; relative to 3 mg/kg) [fold] | seizure incidence (Fmr1 KO mice) | social isolation and communication (autistic children) | irritability subscale of the Aberrant Behavior Checklist and Clinical Global Impressions-Improvement (autistic children; placebo-controlled) |
| --- | --- | --- | --- | --- | --- | --- | --- |
| poorly absorbed | 3 to 4 | NCC(CC(=O)O)c1ccc(Cl)cc1 (racemic) [baclofen, 4-amino-3-(4-chlorophenyl)butanoic acid] | inhibits locomotor activity | 2 | significantly inhibits seizure incidence | – | – |
| – | – | Cc1nc2n(c(=O)c1CCN1CCC(c3noc4cc(F)ccc34)CC1)CCCC2 [risperidone] | – | – | – | not improved | significant improvement |
